In patent US11399543B2, “Substituted 1,2,3,5-tetrahydroimidazo[1,2-a]pyrimidiniumolates for combating animal pests” (BASF SE, priority 2017, dated 2022):
Like-named read-outs stand apart in the source and are kept apart here.

What was measured:
Format in all cases: in vivo
[1] = system: green peach aphid (Myzus persicae); experiment: Green peach aphid B.5.2, systemic, artificial diet under membrane; settings: 72 h, read-out: mortality in comparison with untreated controls
Source text: B.5.2. For evaluating control of green peach aphid (Myzus persicae) through systemic means the test unit consisted of 96-well-microtiter plates containing liquid artificial diet under an artificial membrane. The compounds were formulated using a solution containing 75% v/v water and 25% v/v DMSO. Different concentrations of formulated compounds were pipetted into the aphid diet, using a custom built pipetter, at two replications.
After application, 5-8 adult aphids were placed on the artificial membrane inside the microtiter plate wells. The aphids were then allowed to suck on the treated aphid diet and incubated at about 23±1° C. and about 50±5% relative humidity for 3 days. Aphid mortality and fecundity was then visually assessed.

[2] = system: Cowpea Aphid (Aphis craccivora); experiment: Cowpea aphid, sprayed potted cowpea plants; settings: after 72 hours, read-out: mortality in comparison with untreated controls
Protocol: (§1) The active compound is dissolved at the desired concentration in a mixture of 1:1 (vol:vol) distilled water:acetone. Surfactant (Alkamuls® EL 620) is added at a rate of 0.1% (vol/vol). The test solution is prepared at the day of use.
Potted cowpea plants were colonized with approximately 50-100 aphids of various stages by manually transferring a leaf tissue cut from infested plant 24 hours before application. Plants were sprayed after the pest population has been recorded. Treated plants are maintained on light carts at about 28° C. Percent mortality was assessed after 72 hours.

[3] = system: vetch aphid (Megoura viciae); experiment: Vetch aphid, broad bean leaf disks, contact or systemic; settings: foliar, 120 h, 5 days, read-out: mortality in comparison with untreated controls
Protocol: For evaluating control of vetch aphid (Megoura viciae) through contact or systemic means the test unit consisted of 24-well-microtiter plates containing broad bean leaf disks.
The compounds were formulated using a solution containing 75% v/v water and 25% v/v DMSO. Different concentrations of formulated compounds were sprayed onto the leaf disks at 2.5 μl, using a custom built micro atomizer, at two replications.
After application, the leaf disks were air-dried and 5-8 adult aphids placed on the leaf disks inside the microtiter plate wells. The aphids were then allowed to suck on the treated leaf disks and incubated at about 23±1° C. and about 50±5% relative humidity for 5 days. Aphid mortality and fecundity was then visually assessed.

[4] = system: Southern Armyworm (Spodoptera eridania), 2nd Instar Larvae; experiment: Southern armyworm, sprayed lima bean plants; settings: 96 h, 4 days after treatment, read-out: mortality in comparison with untreated controls
Protocol: (§2) The active compounds were formulated in cyclohexanone as a 10,000 ppm solution supplied in tubes. The tubes were inserted into an automated electrostatic sprayer equipped with an atomizing nozzle and they served as stock solutions for which lower dilutions were made in 50% ace-tone:50% water (v/v). A nonionic surfactant (Kinetic®) was included in the solution at a volume of 0.01% (v/v).
Lima bean plants (variety sieva) were grown 2 plants to a pot and selected for treatment at the 1st true leaf stage. Test solutions were sprayed onto the foliage by an automated electrostatic plant sprayer equipped with an atomizing spray nozzle. The plants were dried in the sprayer fume hood and then removed from the sprayer. Each pot was placed into perforated plastic bags with a zip closure. About 10 to 11 armyworm larvae were placed into the bag and the bags zipped closed. Test plants were maintained in a growth room at about 25° C. and about 20-40% relative humidity for 4 days, avoiding direct exposure to fluorescent light (24 hour photoperiod) to prevent trapping of heat inside the bags. Mortality and reduced feeding were assessed 4 days after treatment, compared to untreated control plants.

[5] = system: Rice Brown Plant Hopper (Nilaparvata lugens); experiment: Rice brown plant hopper, sprayed rice seedlings; settings: after 72 hours, adults, read-out: mortality in comparison with untreated controls
Protocol: (§3) Rice seedlings were cleaned and washed 24 hours before spraying. The active compounds were formulated in 50:50 acetone:water (vol:vol) and 0.1% vol/vol surfactant (EL 620) was added. Potted rice seedlings were sprayed with 5 ml test solution, air dried, placed in cages and inoculated with 10 adults. Treated rice plants were kept at about 28-29° C. and relative humidity of about 50-60%. Percent mortality was recorded after 72 hours.

[6] = system: tobacco budworm (Heliothis virescens); experiment: Tobacco budworm control, microtiter plate insect diet with eggs; settings: 120 h, 5 days, read-out: mortality in comparison with untreated controls (egg and larval mortality)
Protocol: For evaluating control of tobacco budworm (Heliothis virescens) the test unit consisted of 96-well-microtiter plates containing an insect diet and 15-25 H. virescens eggs.
The compounds were formulated using a solution containing 75% v/v water and 25% v/v DMSO. Different concentrations of formulated compounds were sprayed onto the insect diet at 10 μl, using a custom built micro atomizer, at two replications.
After application, microtiter plates were incubated at about 28±1° C. and about 80±5% relative humidity for 5 days. Egg and larval mortality was then visually assessed.

[7] = system: Diamond Back Moth (Plutella xylostella); experiment: Diamond back moth, cabbage leaf dip; settings: foliar, 72 hours after treatment, 3rd instar larvae, read-out: mortality in comparison with untreated controls
Protocol: as §1
Leaves of cabbage were dipped in test solution and air-dried. Treated leaves were placed in petri dish enlined with moist filter paper and inoculated with ten 3rd instar larvae. Mortality was recorded 72 hours after treatment. Feeding damages were also recorded using a scale of 0-100%.

[8] = system: Rice Green Leafhopper (Nephotettix virescens); experiment: Rice green leafhopper, sprayed rice seedlings; settings: after 72 hours, adults, read-out: mortality in comparison with untreated controls
Protocol: as §3, with “(vol:vol),” for “(vol:vol)”

[9] = system: Green Soldier Stink Bug (Nezara viridula); experiment: Green soldier stink bug, sprayed soybean pods in Petri dishes; settings: 120 h, after 5 days, late 3rd instar, read-out: mortality in comparison with untreated controls
Protocol: The active compound was dissolved at the desired concentration in a mixture of 1:1 (vol:vol) distilled water:aceteone. Surfactant (Kinetic® HV) is added at a rate of 0.01% (vol/vol). The test solution was prepared at the day of use.
Soybean pods were placed in 90×50 mm glass Petri dishes lined with moist filter paper and inoculated with ten late 3rd instar N. viridula. Using a hand atomizer, an approximately 2 ml solution is sprayed into each Petri dish. Treated cups were kept at about 25-26° C. and relative humidity of about 65-70%. Percent mortality was recorded after 5 days.

[10] = system: Green Peach Aphid (Myzus persicae, Mixed Life Stages); experiment: Green peach aphid B.5.1, sprayed bell pepper plants; settings: 120 h, after 5 days, read-out: mortality in comparison with untreated controls
Protocol: B.5.1. The active compounds were formulated by a Tecan liquid handler in 100% cyclohexanone as a 10,000 ppm solution supplied in tubes. The 10,000 ppm solution was serially diluted in 100% cyclohexanone to make interim solutions. These served as stock solutions for which final dilutions were made by the Tecan in 50% acetone:50% water (v/v) into 10 or 20 ml glass vials. A nonionic surfactant (Kinetic®) was included in the solution at a volume of 0.01% (v/v). The vials were then inserted into an automated electrostatic sprayer equipped with an atomizing nozzle for application to plants/insects.
Bell pepper plants at the first true-leaf stage were infested prior to treatment by placing heavily infested leaves from the main colony on top of the treatment plants. Aphids were allowed to transfer overnight to accomplish an infestation of 30-50 aphids per plant and the host leaves were removed. The infested plants were then sprayed by an automated electrostatic plant sprayer equipped with an atomizing spray nozzle. The plants were dried in the sprayer fume hood, removed, and then maintained in a growth room under fluorescent lighting in a 24-hr photoperiod at about 25° C. and about 20-40% relative humidity. Aphid mortality on the treated plants, relative to mortality on untreated control plants, was determined after 5 days.

[11] = system: Silverleaf Whitefly (Bemisia argentifolii) (Adults); experiment: Silverleaf whitefly adults, sprayed cotton plants; settings: at 300, 3 days after treatment
Source text: as §2, with “non-ionic” for “nonionic”
Cotton plants at the cotyledon stage (one plant per pot) were sprayed by an automated electrostatic plant sprayer equipped with an atomizing spray nozzle. The plants were dried in the sprayer fume hood and then removed from the sprayer. Each pot was placed into a plastic cup and about 10 to 12 whitefly adults (approximately 3-5 days old) were introduced. The insects were collected using an aspirator and a nontoxic Tygon® tubing connected to a barrier pipette tip. The tip, containing the collected insects, was then gently inserted into the soil containing the treated plant, allowing insects to crawl out of the tip to reach the foliage for feeding. Cups were covered with a reusable screened lid. Test plants were maintained in a growth room at about 25° C. and about 20-40% relative humidity for 3 days, avoiding direct exposure to fluorescent light (24-hour photoperiod) to prevent trapping of heat inside the cup. Mortality was assessed 3 days after treatment, compared to untreated control plants.

[12] = at 2500 ppm, 3 days, systemic, artificial diet

SMILES	mortality at 2500 ppm [1, 12]	mortality at 300 ppm [2]	mortality at 2500 ppm [3]	mortality at 300 ppm [4]	mortality at 300 ppm [5]	mortality at 2500 ppm [6]	mortality at 300 ppm [7]	mortality at 300 ppm [8]	mortality at 2500 ppm [1]	mortality at 300 ppm [9]	mortality at 300 ppm [10]	mortality in comparison with untreated controls [11]
COc1ccc(-c2c([O-])n3c([n+](C)c2=O)N(C)CC3c2cnc(Cl)s2)cc1 (centres unmarked) [Compound C-1, 3-(2-chlorothiazol-5-yl)-6-(4-methoxyphenyl)-1,8-dimethyl-7-oxo-2,3-dihydroimidazo[1,2-a]pyrimidin-8-ium-5-olate]	> 75%	> 75%	–	–	–	–	–	–	–	–	–	–
CN1CC(c2cnc(Cl)s2)n2c1[n+](C)c([O-])c(-c1cc(Cl)cc(Cl)c1)c2=O (centres unmarked) [Compound C-4]	> 75%	> 75%	> 75%	> 75%	> 75%	> 75%	> 75%	> 75%	–	–	–	–
CN1CC(c2ccc(Cl)nc2)n2c1[n+](C)c([O-])c(-c1cc(Cl)cc(Cl)c1)c2=O (centres unmarked) [Compound C-21]	–	–	–	–	–	–	–	–	> 75%	–	–	–
CN1CC(c2cnc(Cl)s2)n2c1[n+](C)c([O-])c(-c1ccccc1)c2=O (centres unmarked) [Compound C-3]	> 75%	> 75%	> 75%	–	> 75%	> 75%	–	> 75%	–	–	–	–
CN1C[C@@H](c2cnc(Cl)s2)n2c1[n+](C)c([O-])c(-c1cccc(C(F)(F)F)c1)c2=O [Compound C-20]	> 75%	> 75%	> 75%	> 75%	–	–	–	–	–	> 75%	–	–
CN1CC(c2cnc(Cl)s2)n2c1[n+](C)c([O-])c(-c1cccc(C(F)(F)F)c1)c2=O (centres unmarked) [Compound C-5]	> 75%	> 75%	> 75%	> 75%	> 75%	> 75%	> 75%	> 75%	–	> 75%	> 75%	over 75%
C[n+]1c2n(c([O-])c(-c3ccccc3)c1=O)C(c1cnc(Cl)s1)CN2 (centres unmarked) [Compound C-25]	–	–	–	–	–	–	–	–	> 75%	–	–	–
C[n+]1c([O-])c(-c2ccccc2)c(=O)n2c1N(C(=O)OC(C)(C)C)CC2c1cnc(Cl)s1 (centres unmarked) [Compound C-2]	> 75%	–	–	–	–	–	–	–	–	–	–	–
